pIC50: −log10 of the molar value.
How the values were obtained:
Format in all cases: functional
Proline--tRNA ligase = molecular target: T1, Proline--tRNA ligase (Plasmodium falciparum (isolate 3D7), UniProt Q8I5R7); test: MMV: ProRS recombinant Plasmodium falciparum Prolyl-tRNA-synthetase, assay with yeast tRNA, ATP, and proline and 3 uM MMV malaria box compound, assay read out with kinase glo as % inhibition.
T1 sequence (Q8I5R7 whole entry): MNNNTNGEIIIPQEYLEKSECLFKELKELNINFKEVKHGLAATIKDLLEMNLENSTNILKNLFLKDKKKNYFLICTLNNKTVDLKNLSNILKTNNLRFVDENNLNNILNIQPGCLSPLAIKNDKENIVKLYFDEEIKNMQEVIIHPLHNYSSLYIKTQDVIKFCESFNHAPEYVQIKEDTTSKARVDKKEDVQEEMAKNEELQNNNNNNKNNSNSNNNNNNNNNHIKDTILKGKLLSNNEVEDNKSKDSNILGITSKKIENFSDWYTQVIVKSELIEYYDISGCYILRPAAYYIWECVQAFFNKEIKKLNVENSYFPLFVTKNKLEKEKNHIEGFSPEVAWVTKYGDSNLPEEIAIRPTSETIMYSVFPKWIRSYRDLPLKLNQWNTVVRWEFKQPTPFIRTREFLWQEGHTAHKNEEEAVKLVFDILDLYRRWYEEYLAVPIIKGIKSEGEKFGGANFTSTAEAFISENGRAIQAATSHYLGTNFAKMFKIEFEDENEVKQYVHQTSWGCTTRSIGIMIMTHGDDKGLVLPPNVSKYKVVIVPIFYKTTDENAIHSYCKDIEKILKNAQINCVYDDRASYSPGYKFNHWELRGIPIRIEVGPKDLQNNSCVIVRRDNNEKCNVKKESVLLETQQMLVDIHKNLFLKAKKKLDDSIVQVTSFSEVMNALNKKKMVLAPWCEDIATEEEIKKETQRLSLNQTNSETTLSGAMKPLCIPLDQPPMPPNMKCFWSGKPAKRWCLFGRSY

[1] = molecular target: T2, Cdk-related protein kinase 6 (Plasmodium falciparum, UniProt O77239); test: Final concentrations were 1.5 uM ATP, 5 mM MnCl2, and 15 ug/ml PK6 in a buffer of 100 mM Tris-HCl (pH 7.5). 50 ug/mL MBP was provided as the substrate; 10 uM staurosporine was used as a control inhibitor. Incubation time was 3 hours and 40 minutes.The catalytic activity of each kinase was considered proportional to ATP consumed, as determined from measurements of residual [ATP] with the luciferase-based reagent Kinase-Glo (Promega) following incubation. Luminescence (proportional to residual [ATP]) was measured on the plate readers FLx800 (BioTek Instruments, Winooski, VT, USA) and MicroBeta2.
T2 sequence (O77239 whole entry): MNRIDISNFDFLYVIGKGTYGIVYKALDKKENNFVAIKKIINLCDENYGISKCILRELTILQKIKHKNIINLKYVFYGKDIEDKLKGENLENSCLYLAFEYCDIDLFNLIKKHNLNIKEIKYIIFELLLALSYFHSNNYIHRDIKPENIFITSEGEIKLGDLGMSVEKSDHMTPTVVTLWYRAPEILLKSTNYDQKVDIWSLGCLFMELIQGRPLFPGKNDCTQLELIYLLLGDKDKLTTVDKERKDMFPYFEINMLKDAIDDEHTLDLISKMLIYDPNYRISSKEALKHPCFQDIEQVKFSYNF

[2] = molecular target: T3, Calcium-dependent protein kinase 4 (Plasmodium falciparum (isolate 3D7), UniProt Q8IBS5); test: MMV: CDPK4 Protein kinase inhibition assay using recombinant PfCDPK4, syntide2 peptide substrate, ATP and KinaseGlo to measure % inhibition at 1 uM MMV box compound.
T3 sequence (Q8IBS5 whole entry): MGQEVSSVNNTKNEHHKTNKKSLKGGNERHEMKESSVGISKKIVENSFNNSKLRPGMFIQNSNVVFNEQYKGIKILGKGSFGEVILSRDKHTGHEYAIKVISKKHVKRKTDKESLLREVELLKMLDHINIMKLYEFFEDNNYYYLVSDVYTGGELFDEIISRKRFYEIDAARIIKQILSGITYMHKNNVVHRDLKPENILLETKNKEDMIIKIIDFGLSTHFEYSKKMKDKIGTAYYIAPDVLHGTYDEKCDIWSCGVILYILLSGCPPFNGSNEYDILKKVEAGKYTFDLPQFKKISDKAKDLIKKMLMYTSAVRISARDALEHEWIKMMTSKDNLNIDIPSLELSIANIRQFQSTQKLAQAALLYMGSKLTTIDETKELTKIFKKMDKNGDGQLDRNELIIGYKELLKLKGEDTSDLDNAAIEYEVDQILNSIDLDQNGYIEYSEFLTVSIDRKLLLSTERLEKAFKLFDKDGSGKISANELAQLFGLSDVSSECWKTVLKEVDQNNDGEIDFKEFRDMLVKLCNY

Lysine--tRNA ligase = Lysine--tRNA ligase (Plasmodium falciparum (isolate 3D7), UniProt Q8IDJ8); test: MMV: KRS recombinant Plasmodium falciparum Lysyl-tRNA-synthetase, assay with yeast tRNA, ATP, and lysine and 3 uM MMV malaria box compound, assay read out with kinase glo as % inhibition.
Sequence of Lysine--tRNA ligase (Q8IDJ8 whole entry): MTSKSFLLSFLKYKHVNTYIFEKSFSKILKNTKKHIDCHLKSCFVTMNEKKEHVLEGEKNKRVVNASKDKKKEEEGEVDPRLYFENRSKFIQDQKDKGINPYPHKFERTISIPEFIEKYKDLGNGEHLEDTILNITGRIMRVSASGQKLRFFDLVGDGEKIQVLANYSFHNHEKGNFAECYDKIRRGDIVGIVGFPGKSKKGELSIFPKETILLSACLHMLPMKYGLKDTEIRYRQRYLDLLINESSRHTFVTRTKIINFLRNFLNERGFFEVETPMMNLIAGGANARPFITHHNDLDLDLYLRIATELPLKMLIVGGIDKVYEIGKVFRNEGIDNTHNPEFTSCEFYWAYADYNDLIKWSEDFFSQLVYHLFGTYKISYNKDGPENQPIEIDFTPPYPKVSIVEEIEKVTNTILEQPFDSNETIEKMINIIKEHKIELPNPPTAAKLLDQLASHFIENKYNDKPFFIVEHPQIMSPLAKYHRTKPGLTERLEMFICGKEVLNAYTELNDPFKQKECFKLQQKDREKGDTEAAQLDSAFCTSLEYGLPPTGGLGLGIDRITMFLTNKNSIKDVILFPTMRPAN

[3] = molecular target: T4, Mitogen-activated protein kinase (Plasmodium falciparum, UniProt Q25917); test: Final concentrations were 1 uM ATP, 0.5 mM DTT, 1 mM MgCl2, 0.5 mg/mL BSA, and 10 ug/ml MAP2 in a buffer of 50 mM HEPES (pH 7.0). 0.5 mg/mL histone III-S served as the substrate (13); 100 uM AMP-PNP, an ATP analog, was used as a control inhibitor. Incubation time was 4 hours.
T4 sequence (Q25917 whole entry): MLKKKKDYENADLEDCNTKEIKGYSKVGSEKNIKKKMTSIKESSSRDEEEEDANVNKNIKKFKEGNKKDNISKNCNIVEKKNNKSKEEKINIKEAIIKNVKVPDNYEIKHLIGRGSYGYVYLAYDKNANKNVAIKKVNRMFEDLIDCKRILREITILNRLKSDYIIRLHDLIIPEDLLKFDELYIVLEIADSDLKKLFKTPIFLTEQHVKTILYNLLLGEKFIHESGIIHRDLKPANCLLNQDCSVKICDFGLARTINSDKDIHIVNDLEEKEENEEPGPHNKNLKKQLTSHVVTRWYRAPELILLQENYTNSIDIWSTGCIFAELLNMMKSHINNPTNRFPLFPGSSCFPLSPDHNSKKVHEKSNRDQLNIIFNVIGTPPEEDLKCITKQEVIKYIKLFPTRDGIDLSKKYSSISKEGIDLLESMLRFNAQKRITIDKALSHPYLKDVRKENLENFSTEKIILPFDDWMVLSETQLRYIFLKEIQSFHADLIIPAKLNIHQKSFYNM

[4] = molecular target: T5, Putative uncharacterized protein pk7 (Plasmodium falciparum, UniProt O96214); test: Final concentrations were 1 uM ATP, 2 mM DTT, 20 mM MgCl2, 2 mM MnCl2, 0.01% BSA, and 6 ug/ml PK7, in a buffer of 20 mM Tris-HCl (pH 7.5). The enzyme itself was the only substrate present (since autophosphorylation occurs); 100 uM 1NA-PP1 was used as a control inhibitor. Incubation time was 3 hours.
T5 sequence (O96214 whole entry): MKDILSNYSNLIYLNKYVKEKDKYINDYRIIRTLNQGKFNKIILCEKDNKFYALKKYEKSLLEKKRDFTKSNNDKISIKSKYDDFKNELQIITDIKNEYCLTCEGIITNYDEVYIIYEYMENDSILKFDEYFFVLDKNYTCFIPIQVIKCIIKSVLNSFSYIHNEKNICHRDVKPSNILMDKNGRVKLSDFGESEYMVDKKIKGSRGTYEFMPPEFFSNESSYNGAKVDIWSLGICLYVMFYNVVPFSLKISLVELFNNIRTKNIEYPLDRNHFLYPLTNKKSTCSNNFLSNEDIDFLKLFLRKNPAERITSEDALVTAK

[5] = molecular target: Calcium-dependent protein kinase 1 (Plasmodium falciparum, UniProt P62344); test: MMV: CDPK1 Protein kinase inhibition assay using recombinant PfCDPK1, syntide 2 peptide substrate, ATP and KinaseGlo to measure % inhibition at 1 uM MMV box compound.
Sequence of Calcium-dependent protein kinase 1 (P62344 whole entry): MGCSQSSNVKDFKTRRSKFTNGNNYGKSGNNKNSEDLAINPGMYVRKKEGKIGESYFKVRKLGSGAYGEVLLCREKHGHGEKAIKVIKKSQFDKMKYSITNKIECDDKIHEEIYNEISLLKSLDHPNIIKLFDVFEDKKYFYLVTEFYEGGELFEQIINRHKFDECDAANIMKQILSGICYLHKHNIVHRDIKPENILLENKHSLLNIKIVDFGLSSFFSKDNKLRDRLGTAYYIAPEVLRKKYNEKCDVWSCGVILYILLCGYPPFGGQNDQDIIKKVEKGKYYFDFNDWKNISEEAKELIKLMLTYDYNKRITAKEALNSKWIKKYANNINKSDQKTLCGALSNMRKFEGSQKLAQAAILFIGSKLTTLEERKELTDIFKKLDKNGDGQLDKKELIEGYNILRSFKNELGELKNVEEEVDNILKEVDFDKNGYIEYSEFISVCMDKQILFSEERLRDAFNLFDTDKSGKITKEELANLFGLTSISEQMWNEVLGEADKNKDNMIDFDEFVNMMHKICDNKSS

CC(C)(C)c1ccc(C(=O)Nc2c3c(nn2-c2cccc(Cl)c2)CSC3)cc1
pIC50 (Proline--tRNA ligase): < 5.60 | pIC50 [1]: < 6.00 | pIC50 [2]: < 6.00 | pIC50 (Lysine--tRNA ligase): < 5.60 | pIC50 [3]: < 6.00 | pIC50 [4]: < 6.00 | pIC50 [5]: < 6.00
